Patent US20220373555A1, “Methods to detect or quantify a gadolinium-based contrast agent in a sample using a luminescent agent able to chelate a Gd3+ cation” (THE REGENTS OF THE UNIVERSITY OF CALIFORNIA, priority 2021, published 2022)

Experiments:
[1] = Quantification of GBCAs in mouse urine by ICP-OES; type: in vivo, Swiss Webster mice; conditions: urine collected 2 h after i.v. injection, 0.3 mmol/kg
Description: (§1) Finally, the luminescence assay by quantifying GBCAs in mouse urine samples is validated. The three GBCAs are intravenously injected (four mice per group), and urine is collected 2 h after injection, as mice excrete the contrast agents more quickly than humans do.^41 Due to the different composition between mouse and human urine,^42 calibration curves (FIG. 7) are performed by spiking GBCA standards into urine from control mice rather than into synthetic human urine. Table 4 reports the assay response to the mouse urine samples, and Table 3 compares the GBCA concentrations quantified by the assay versus inductively coupled plasma optical emission spectrometry (ICP-OES), which is one of the gold standard techniques for gadolinium quantification.^43 The assay provided values that are very similar to those of ICP-OES, with only slightly higher standard deviations.
The protocol used in the animal studies is reviewed and approved by the Institutional Animal Care and Use Committee of Lawrence Berkeley National Laboratory, and is performed in AAALAC-accredited facilities according to prescribed guidelines and regulations. The animals are young adult (78 days old) female (33.0±1.4 g) Swiss Webster mice (Simonsen Laboratories, Gilroy, Calif., USA). Mice are kept under a 12 h light cycle with controlled temperature (21-24° C.) and relative humidity (30-70%), and are given water and food ad libitum. Each group is housed together in a plastic stock cage lined with a 0.5 cm layer of highly absorbent low-ash pelleted cellulose bedding (ALPHA-dri). […]
To quantify the concentrations of the GBCA in mouse urine by ICP-OES, 50 μL of commercial stock solutions are digested in 100 μL of nitric acid (70%) and 100 μL of hydrogen chloride (6 N) for 3 h at 60 ° C. and re-dispersed in 4.75 mL of Milli-Q water. The final concentration of gadolinium in solution is quantified on a Perkin Elmer 5300 DV optical emission ICP with auto sampler at the Inductively Coupled Plasma Spectroscopy Facility of the University of California, Berkeley. […]

[2] = Quantification of GBCAs in mouse urine by luminescence assay; type: in vivo, Swiss Webster mice; conditions: for [GBCA] in assay solution: mouse urine 2 h after injection, diluted in MES buffer; for [GBCA] in original sample: mouse urine collected 2 h after injection; for GBCA concentration in mouse urine, Luminescence assay: urine collected 2 h after i.v. injection, 0.3 mmol/kg
Description: as §1
The protocol used in the animal studies is reviewed and approved by the Institutional Animal Care and Use Committee of Lawrence Berkeley National Laboratory, and is performed in AAALAC-accredited facilities according to prescribed guidelines and regulations. The animals are young adult (78 days old) female (33.0±1.4 g) Swiss Webster mice (Simonsen Laboratories, Gilroy, Calif., USA). Mice are kept under a 12 h light cycle with controlled temperature (21-24° C.) and relative humidity (30-70%), and are given water and food ad libitum. Each group is housed together in a plastic stock cage lined with a 0.5 cm layer of highly absorbent low-ash pelleted cellulose bedding (ALPHA-dri). Groups of four mice are injected intravenously into a warmed lateral tail vein with a single dose of GBCA (0.3 mmol/kg mouse) or bacteriostatic […] sodium chloride solution (control group), and urine is collected after 2 h through bladder massage method. Finally, euthanasia is performed under isotiurane anesthesia.
Because the GBCA concentration in mouse urine is very high at early excretion times, the samples are diluted in buffer as described: 1 μL mouse urine samples are mixed with […] MES solutions (final concentration 50 mM, pH 6.0). 4 μL 3,4,3-LI(1,2-HOPO) (1 mM) are added to each solution, mixed for 10 s, and left to incubate at room temperature, without stirring for 10 min. 4 μL EuCl3 (1 mM) are added, mixed for 10 s and left undisturbed for 10 min before recording emission spectra from 500 to 700 nm under 315 nm excitation with a SpectraMax iD3 Multi-Mode Microplate Reader. For calibration curve preparation, GBCA standard solutions are spiked into urine of control mice. The resulting solutions are quantified as previously described in this paragraph.

[3] = Effect of urine on Eu3+-3,4,3-LI(1,2-HOPO) emission / stability in urine; type: physicochemical
Description: Urine is a complex matrix comprised of salts and metabolism by-products, which can potentially affect assay response. […] Although the average pH of human urine is 6.0, there is a strong variation among individuals.^37 Therefore, the following in vitro experiments are performed with urine at 50% dilution with […] buffer (50 mM, pH 6.0) to fix the acidity of the solution, preventing potential variations in the assay response due to sample pH, and 10 min incubation times, which had been optimized in preliminary experiments.
2 μL 3,4,3-LI(1,2-HOPO) (1 mM) and EuCl3 (1 mM) are added to a water solution, mixed for 10 s, and left to incubate at room temperature, without stirring, for 10 min. The absorption spectrum (from 250 to 425 nm) and luminescence spectrum (from 500 to 750 nm under 315 nm excitation) are recorded with a SpectraMax iD3 Multi-Mode Microplate Reader (Molecular Devices, Sunnyvale, Calif.).

[4] = Selectivity of the Eu3+-3,4,3-LI(1,2-HOPO) probe: optical response to Gd3+ and interfering cations; type: physicochemical; conditions: 50 μM cation; emission at 620 nm, 315 nm excitation
Description: The optical response (FIG. 2b) of the Eu^3+-3,4,3-LI(1,2-HOPO) complex to Gd^3+ ions and several potential interfering cations is examined.
2 μL 3,4,3-LI(1,2-HOPO) (1 mM) are added to various solutions containing 50 μM of Gd^3+, Na^+, K^+, Ca^2+ or Mg^2+, mixed for 10 s, and left to incubate at room temperature, without stirring for 10 min. 2 μL EuCl3 (1 mM) are added to the solutions, mixed for 10 s, and left undisturbed for 10 min before recording emission spectra from 500 to 700 nm, under 315 nm excitation with a SpectraMax iD3 Multi-Mode Microplate Reader.

[5] = Detection of GBCA in synthetic human urine by luminescence quenching assay; conditions: GBCA increased up to 150 μM; 50% synthetic human urine, 50 mM MES pH 6.0
Description: In this assay, 3,4,3-LI(1,2-HOPO) is added to the urine sample and, in the absence of GBCAs, 1,2-HOPO groups remain available to complex other metal species. Eu^3+ is then added, and its emission is sensitized (FIG. 3). In the presence of GBCAs, however, 1,2-HOPO units acquire the Gd^3+ from the contrast agent because of their higher affinity for the metal compared to clinical ligands,^23 preventing the coordination of subsequently added Eu^3+. Thus, a drastic emission quenching is induced in presence of GBCAs.
Surine™ samples containing different amounts of GBCA are diluted down to 50% with MES solution (final concentration 50 mM, pH 6.0). 2 μL 3,4,3-LI(1,2-HOPO) (1 mM) are added to each solution, mixed for 10 s, and left to incubate at room temperature, without stirring for 10 min. 2 μL EuCl3 (1 mM) are added, mixed for 10 s and left undisturbed for 10 min before recording emission spectra from 500 to 700 nm under 315 nm excitation with a SpectraMax iD3 Multi-Mode Microplate Reader.
The limit of detection is calculated as: […]
Where ILOD is the assay response intensity at the limit of detection, Iblank is the response intensity of the blank, and σblank is the standard deviation for the blank signal.

**Q.** What does the source list for `CNC[C@H](O)[C@@H](O)[C@H](O)[C@H](O)CO.CNC[C@H](O)[C@@H](O)[C@H](O)[C@H](O)CO.O=C([O-])CN(CCN(CC(=O)[O-])CC(=O)O)CCN(CC(=O)O)C(COCc1ccccc1)C(=O)[O-].[Gd+3]` (stereo not shown) [Multihance, gadobenate dimeglumine]?
**A.** GBCA concentration in mouse urine, ICP-OES [1]: 0.015 ± 0.000 M; [GBCA] in assay solution [2]: 86 ± 9 µM; [GBCA] in original sample [2]: 0.017 ± 0.004 M; GBCA concentration in mouse urine, Luminescence assay [2]: 0.017 ± 0.004 M

**Q.** For Eu^3+-3,4,3-LI(1,2-HOPO), which “effect of urine on emission” value ([3]; 20 μM, 0 to 100% artificial human urine (Surine), 315 nm excitation) is on record?
**A.** The value was “not affected by urine”.

**Q.** For `CNC(=O)CN(CCN(CCN(CC(=O)[O-])CC(=O)NC)CC(=O)[O-])CC(=O)[O-].[Gd+3]` [Omnsican, gadodiamide], which “GBCA concentration in mouse urine, ICP-OES” value [1] is on record?
**A.** Its value is 0.024 ± 0.000 M.

**Q.** What about the “[GBCA] in assay solution” value [2] of the same molecule?
**A.** Its value is 101 ± 3 µM.

**Q.** What about the “[GBCA] in original sample” value [2] of the same molecule?
**A.** The value was 0.020 ± 0.001 M.

**Q.** And the “GBCA concentration in mouse urine, Luminescence assay” value [2]?
**A.** Its value is 0.020 ± 0.001 M.

**Q.** With `O.O.O.O.O.O.[Cl-].[Cl-].[Cl-].[Gd+3]` [Gd^3+, gadolinium (III) chloride hexahydrate] as the molecule, how does the “quenching of 20 μM Eu^3+-3,4,3-LI(1,2-HOPO) emission” value [4] read?
**A.** The value was 71±1%.

**Q.** For `O=C(NCCCN(CCCCN(CCCNC(=O)c1cccc(=O)n1O)C(=O)c1cccc(=O)n1O)C(=O)c1cccc(=O)n1O)c1cccc(=O)n1O` [3,4,3-LI(1,2-HOPO)], which stability in urine ([3]; urine) is on record?
**A.** Its stability in urine is “stable in urine”.

**Q.** With `CNC[C@H](O)[C@@H](O)[C@H](O)[C@H](O)CO.CNC[C@H](O)[C@@H](O)[C@H](O)[C@H](O)CO.O=C([O-])CN(CCN(CC(=O)[O-])CC(=O)O)CCN(CC(=O)[O-])CC(=O)O.[Gd+3]` [Magnevist, gadopentetate dimeglumine] as the molecule, how does the “GBCA concentration in mouse urine, ICP-OES” value [1] read?
**A.** The value was 0.018 ± 0.000 M.

**Q.** And the “decrease of luminescence of the assay solution” value [5]?
**A.** Its value is 75±1%.

**Q.** And the “[GBCA] in assay solution” value [2]?
**A.** The value was 101 ± 13 µM.

**Q.** What about the “[GBCA] in original sample” value [2] of the same molecule?
**A.** Its value is 0.020 ± 0.005 M.

**Q.** What about the “GBCA concentration in mouse urine, Luminescence assay” value [2] of the same molecule?
**A.** The value was 0.020 ± 0.005 M.
